According to ChEMBL document CHEMBL3885861, “Open TG-GATES”:

Species on record: Rattus norvegicus
Assay: Open TG-GATES - Regimen: Daily Repeat
Assay type: toxicity, organism-based, Sprague-Dawley
Set-up: regimen Daily Repeat, gender Male, age 6 weeks
Conditions: in vivo, po, route gavage; for gamma-GTP / ALP / ALT / AST / BUN / CRE / Ca / Cl / DBIL / GLC / IP / K / LDH / Na / PL / RALB / TBIL / TC / TG / TP: tissue Plasma; for APTT / Bas / Eos / Fbg / Ht / Lym / MCH / MCHC / MCV / Mono / Neu / PT / Plat / RBC / Ret / WBC: tissue Blood; for KIDNEY_L / KIDNEY_R / KIDNEY_TOTAL: tissue Kidney; for LIVER: tissue Liver
[1] = 10 mg/kg, 72 h, dose level Low, time 3 day
[2] = 10 mg/kg, […], dose level Low, time 7 day
[3] = 10 mg/kg, […], dose level Low, time 14 day
[4] = 10 mg/kg, […], dose level Low, time 28 day

For Cc1cccc(Nc2cc(Cl)nc(SCC(=O)O)n2)c1C [PIRINIXIC ACID], which gamma-GTP (0 mg/kg, […], dose level Control, time 28 day) is on record?
The gamma-GTP was 1 IU/L.

And the TERMINAL_BW [1]?
Its TERMINAL_BW is 232.6 g.

And the APTT [1]?
Its APTT is 15.8 s.

What about the Bas [1] of the same compound?
Its Bas is 0%.

And the Eos [1]?
The Eos was 1%.

What about the Fbg [1] of the same compound?
The Fbg was 215.2 mg/dL.

What about the Ht [1] of the same compound?
Its Ht is 39%.

What about the Lym [1] of the same compound?
The Lym was 76.6%.

And the MCH [1]?
The MCH was 21.6 pg.

And the MCHC [1]?
Its MCHC is 34%.

What about the MCV [1] of the same compound?
The MCV was 63.6 fL.

What about the Mono [1] of the same compound?
Its Mono is 2.6%.

And the Neu [1]?
Its Neu is 19.2%.

And the PT [1]?
Its PT is 12.5 s.

What about the Plat [1] of the same compound?
The Plat was 111.3 x10_4/uL.

And the RBC [1]?
Its RBC is 612.8 x10_4/ul.

What about the Ret [1] of the same compound?
The Ret was 6.1%.

And the WBC [1]?
Its WBC is 76.7 x10_2/uL.

And the KIDNEY_L [1]?
The KIDNEY_L was 1 g.

What about the KIDNEY_R [1] of the same compound?
The KIDNEY_R was 1 g.

And the KIDNEY_TOTAL [1]?
Its KIDNEY_TOTAL is 1.9 g.

And the LIVER [1]?
The LIVER was 14.4 g.

And the ALP [1]?
Its ALP is 2039.8 IU/L.

What about the ALT [1] of the same compound?
Its ALT is 60.6 IU/L.

What about the AST [1] of the same compound?
The AST was 81.6 IU/L.

What about the BUN [1] of the same compound?
Its BUN is 14.6 mg/dL.

What about the CRE [1] of the same compound?
The CRE was 0.2 mg/dL.

And the Ca [1]?
The Ca was 10.8 mg/dL.

What about the Cl [1] of the same compound?
The Cl was 106 meq/L.

And the DBIL [1]?
The DBIL was 0.02 mg/dL.

What about the GLC [1] of the same compound?
The GLC was 210 mg/dL.

And the IP [1]?
Its IP is 7.5 mg/dL.

What about the K [1] of the same compound?
The K was 4.1 meq/L.

What about the LDH [1] of the same compound?
The LDH was 90 IU/L.

What about the Na [1] of the same compound?
The Na was 143.8 meq/L.

What about the PL [1] of the same compound?
Its PL is 111.8 mg/dL.

What about the RALB [1] of the same compound?
The RALB was 2.7 g/dL.

And the TBIL [1]?
The TBIL was 0.03 mg/dL.

What about the TC [1] of the same compound?
The TC was 55 mg/dL.

And the TG [1]?
Its TG is 31.2 mg/dL.

What about the TP [1] of the same compound?
Its TP is 5.4 g/dL.

And the gamma-GTP [1]?
Its gamma-GTP is 1.2 IU/L.

And the TERMINAL_BW [2]?
The TERMINAL_BW was 276.5 g.

And the TERMINAL_BW [3]?
Its TERMINAL_BW is 313.7 g.

What about the TERMINAL_BW [4] of the same compound?
The TERMINAL_BW was 373.2 g.

What about the APTT [2] of the same compound?
Its APTT is 17.8 s.

And the Bas [2]?
Its Bas is 0%.

What about the Eos [2] of the same compound?
Its Eos is 1%.

What about the Fbg [2] of the same compound?
The Fbg was 262.8 mg/dL.

And the Ht [2]?
The Ht was 38.4%.

What about the Lym [2] of the same compound?
The Lym was 76.4%.

And the MCH [2]?
Its MCH is 21.6 pg.

And the MCHC [2]?
The MCHC was 34.9%.

And the MCV [2]?
The MCV was 61.8 fL.

And the Mono [2]?
The Mono was 3.2%.

What about the Neu [2] of the same compound?
The Neu was 19.2%.

What about the PT [2] of the same compound?
The PT was 12.6 s.

And the Plat [2]?
Its Plat is 130.2 x10_4/uL.

What about the RBC [2] of the same compound?
Its RBC is 621.6 x10_4/ul.

And the Ret [2]?
Its Ret is 5.9%.

And the WBC [2]?
Its WBC is 93.9 x10_2/uL.

And the APTT [3]?
Its APTT is 17.3 s.

And the Bas [3]?
The Bas was 0.2%.

What about the Eos [3] of the same compound?
The Eos was 1%.

What about the Fbg [3] of the same compound?
The Fbg was 262.8 mg/dL.

And the Ht [3]?
The Ht was 38.9%.

And the Lym [3]?
Its Lym is 78.8%.

And the MCH [3]?
Its MCH is 20.7 pg.

What about the MCHC [3] of the same compound?
The MCHC was 35.3%.

And the MCV [3]?
Its MCV is 58.6 fL.

What about the Mono [3] of the same compound?
Its Mono is 2.8%.

And the Neu [3]?
The Neu was 16%.

And the PT [3]?
The PT was 12.5 s.

And the Plat [3]?
The Plat was 132.4 x10_4/uL.

What about the RBC [3] of the same compound?
Its RBC is 664.6 x10_4/ul.

What about the Ret [3] of the same compound?
The Ret was 4.7%.

What about the WBC [3] of the same compound?
The WBC was 110.5 x10_2/uL.

What about the APTT [4] of the same compound?
The APTT was 16.3 s.

And the Bas [4]?
Its Bas is 0%.

And the Eos [4]?
The Eos was 1%.

And the Fbg [4]?
Its Fbg is 251.2 mg/dL.

What about the Ht [4] of the same compound?
Its Ht is 39.5%.

And the Lym [4]?
Its Lym is 76.8%.

What about the MCH [4] of the same compound?
Its MCH is 19.7 pg.

And the MCHC [4]?
The MCHC was 35.9%.

What about the MCV [4] of the same compound?
The MCV was 54.9 fL.

What about the Mono [4] of the same compound?
The Mono was 3.6%.

And the Neu [4]?
The Neu was 18%.

What about the PT [4] of the same compound?
Its PT is 12.2 s.

And the Plat [4]?
The Plat was 118 x10_4/uL.

And the RBC [4]?
Its RBC is 720.4 x10_4/ul.

And the Ret [4]?
Its Ret is 2.7%.

And the WBC [4]?
Its WBC is 97.4 x10_2/uL.

And the KIDNEY_L [2]?
The KIDNEY_L was 1.2 g.

And the KIDNEY_R [2]?
The KIDNEY_R was 1.1 g.

What about the KIDNEY_TOTAL [2] of the same compound?
Its KIDNEY_TOTAL is 2.3 g.

What about the KIDNEY_L [3] of the same compound?
Its KIDNEY_L is 1.3 g.

What about the KIDNEY_R [3] of the same compound?
The KIDNEY_R was 1.3 g.

And the KIDNEY_TOTAL [3]?
Its KIDNEY_TOTAL is 2.6 g.

And the KIDNEY_L [4]?
The KIDNEY_L was 1.4 g.

What about the KIDNEY_R [4] of the same compound?
Its KIDNEY_R is 1.4 g.

What about the KIDNEY_TOTAL [4] of the same compound?
Its KIDNEY_TOTAL is 2.9 g.

And the LIVER [2]?
Its LIVER is 20.3 g.

What about the LIVER [3] of the same compound?
Its LIVER is 22.8 g.

What about the LIVER [4] of the same compound?
Its LIVER is 26.4 g.

And the ALP [2]?
The ALP was 1837.8 IU/L.

What about the ALT [2] of the same compound?
Its ALT is 49.2 IU/L.

What about the AST [2] of the same compound?
The AST was 65.4 IU/L.

What about the BUN [2] of the same compound?
Its BUN is 18.4 mg/dL.

And the CRE [2]?
The CRE was 0.2 mg/dL.

And the Ca [2]?
The Ca was 11.2 mg/dL.

And the Cl [2]?
Its Cl is 102.4 meq/L.

What about the DBIL [2] of the same compound?
Its DBIL is 0.014 mg/dL.

What about the GLC [2] of the same compound?
The GLC was 202.6 mg/dL.

And the IP [2]?
The IP was 7.2 mg/dL.

And the K [2]?
The K was 4.2 meq/L.

And the LDH [2]?
Its LDH is 98.8 IU/L.

What about the Na [2] of the same compound?
Its Na is 142.2 meq/L.

And the PL [2]?
Its PL is 148.6 mg/dL.

What about the RALB [2] of the same compound?
Its RALB is 3 g/dL.

And the TBIL [2]?
Its TBIL is 0.026 mg/dL.

What about the TC [2] of the same compound?
The TC was 77.6 mg/dL.

And the TG [2]?
Its TG is 60.4 mg/dL.

And the TP [2]?
The TP was 6.2 g/dL.

And the gamma-GTP [2]?
The gamma-GTP was 1 IU/L.

What about the ALP [3] of the same compound?
Its ALP is 1550.8 IU/L.

What about the ALT [3] of the same compound?
Its ALT is 45 IU/L.

What about the AST [3] of the same compound?
Its AST is 64 IU/L.

What about the BUN [3] of the same compound?
Its BUN is 17.4 mg/dL.

What about the CRE [3] of the same compound?
The CRE was 0.2 mg/dL.

And the Ca [3]?
Its Ca is 10.5 mg/dL.

What about the Cl [3] of the same compound?
The Cl was 103.2 meq/L.

What about the DBIL [3] of the same compound?
The DBIL was 0.016 mg/dL.

What about the GLC [3] of the same compound?
Its GLC is 206.8 mg/dL.

What about the IP [3] of the same compound?
The IP was 7.4 mg/dL.

And the K [3]?
Its K is 3.8 meq/L.

What about the LDH [3] of the same compound?
The LDH was 97.2 IU/L.

And the Na [3]?
The Na was 142.2 meq/L.

And the PL [3]?
The PL was 144.2 mg/dL.

And the RALB [3]?
The RALB was 2.9 g/dL.

What about the TBIL [3] of the same compound?
Its TBIL is 0.032 mg/dL.

What about the TC [3] of the same compound?
The TC was 67.2 mg/dL.

What about the TG [3] of the same compound?
The TG was 53.6 mg/dL.

What about the TP [3] of the same compound?
Its TP is 6.2 g/dL.

And the gamma-GTP [3]?
Its gamma-GTP is 1.2 IU/L.

What about the ALP [4] of the same compound?
Its ALP is 1413.8 IU/L.

And the ALT [4]?
Its ALT is 50.4 IU/L.

And the AST [4]?
Its AST is 63.6 IU/L.

And the BUN [4]?
Its BUN is 17.6 mg/dL.

And the CRE [4]?
The CRE was 0.2 mg/dL.

And the Ca [4]?
The Ca was 11 mg/dL.

And the Cl [4]?
Its Cl is 103.8 meq/L.

And the DBIL [4]?
Its DBIL is 0.014 mg/dL.

And the GLC [4]?
Its GLC is 188.6 mg/dL.

And the IP [4]?
Its IP is 7.4 mg/dL.

And the K [4]?
Its K is 3.7 meq/L.

What about the LDH [4] of the same compound?
Its LDH is 115 IU/L.

And the Na [4]?
The Na was 143 meq/L.

And the PL [4]?
The PL was 155.2 mg/dL.

What about the RALB [4] of the same compound?
Its RALB is 3.1 g/dL.

What about the TBIL [4] of the same compound?
Its TBIL is 0.048 mg/dL.

What about the TC [4] of the same compound?
Its TC is 79.4 mg/dL.

And the TG [4]?
Its TG is 63.4 mg/dL.

What about the TP [4] of the same compound?
The TP was 6.8 g/dL.
